From patent EP1268487B1, “TRICYCLIC PROTEIN KINASE INHIBITORS” (Wyeth, priority 2000, dated 2001)
≈ marks a conversion by molar mass, not a printed value. Each block holds one compound with its values, some of them ahead of it.

Columns and labels:
MDA435 = assay: Inhibition of cancer cell growth as measured by cell number (Sulforhodamine B); format: cell-based; details: Homo sapiens, 48 hours exposure
Experimental: (§1) Human tumor cell lines were plated in 96-well plates (250 µl/well, 1-6 x 10^4 cells/ml) in RPMI 1640 medium, containing 5% FBS (Fetal Bovine Serum). […] After 48 hours exposure to test compounds, cells were fixed with trichloroacetic acid, and stained with Sulforhodamine B. After washing with trichloroacetic acid, bound dye was solubilized in 10 mM Tris base and optical density was determined using a plate reader. Under conditions of the assay the optical density is proportional to the number of cells in the well. IC50s (concentrations causing 50% inhibition of cell growth) were determined from the growth inhibition plots. The test procedure is described in details by Philip Skehan et. al, J.Natl. Canc. Inst., 82, 1107-1112 (1990). […] Information about some of the cell lines used in these test procedures is available from the American Type Tissue Collection: Cell Lines and Hybridomas, 1994 Reference Guide, 8th Edition. The Her2Neu cell line is a 3T3 line that has been transfected with Her2 receptor kinase.

SKBR3 = assay: as above; format: cell-based; details: Homo sapiens, SK-BR-3; 48 hours exposure
Experimental: as §1

Her2Neu = assay: as above; format: cell-based; details: 48 hours exposure; 3T3 line transfected with Her2 receptor kinase
Experimental: as §1

3T3 = assay: as above; format: cell-based; details: Mus musculus, NIH3T3; 48 hours exposure
Experimental: as §1

A431 = assay: as above; format: cell-based; details: Homo sapiens, A-431; 48 hours exposure
Experimental: as §1

SW620 = assay: as above; format: cell-based; details: Homo sapiens, SW-620; 48 hours exposure
Experimental: as §1

[1] = molecular target: T1, Epidermal Growth Factor Receptor Kinase (EGF-R) (Homo sapiens, UniProt P00533); assay: Inhibition of Epidermal Growth Factor Receptor Kinase (EGF-R) using recombinant enzyme; format: biochemical; details: for inhibition at 0.5 µM: 0.5 µM concentration of test compound
T1 construct: containing the EGFR cDNA encoding amino acids 645 - 1186 preceded by Met-Ala-(His)6; Met-Ala-(His)6 (N); made in house; host or cells: Sf9 insect cells (baculovirus vHcEGFR52)
T1 sequence (P00533 669-1210): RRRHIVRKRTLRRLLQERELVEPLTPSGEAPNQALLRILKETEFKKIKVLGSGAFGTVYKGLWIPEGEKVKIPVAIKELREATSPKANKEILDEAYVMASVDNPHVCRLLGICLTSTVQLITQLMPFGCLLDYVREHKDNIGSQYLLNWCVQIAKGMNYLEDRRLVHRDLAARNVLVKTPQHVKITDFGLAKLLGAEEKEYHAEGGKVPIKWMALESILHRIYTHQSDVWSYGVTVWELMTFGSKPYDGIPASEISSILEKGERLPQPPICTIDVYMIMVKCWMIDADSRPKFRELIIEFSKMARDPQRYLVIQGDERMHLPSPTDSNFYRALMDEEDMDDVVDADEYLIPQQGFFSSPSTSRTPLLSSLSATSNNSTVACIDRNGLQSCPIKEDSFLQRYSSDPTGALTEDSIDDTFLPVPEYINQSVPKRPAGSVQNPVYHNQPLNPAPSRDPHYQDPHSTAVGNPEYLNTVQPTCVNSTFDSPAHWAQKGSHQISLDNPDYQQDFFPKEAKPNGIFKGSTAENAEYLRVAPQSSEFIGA
Experimental: Representative test compounds were evaluated for their ability to inhibit the phosphorylation of the tyrosine residue of a peptide substrate catalyzed by the enzyme epidermal growth factor receptor kinase. The peptide substrate (RR-SRC) has the sequence arg-arg-leu-ile-glu-asp-ala-glu-tyr-ala-ala-arg-gly. The enzyme used in this assay is the His-tagged cytoplasmic domain of EGFR. A recombinant baculovirus (vHcEGFR52) was constructed containing the EGFR cDNA encoding amino acids 645 - 1186 preceded by Met-Ala-(His)6. Sf9 cells in 100 mm plates were infected at an moi of 10 pfu/cell and cells were harvested 48 hours post infection. A cytoplasmic extract was prepared using 1% Triton X-100 and applied to Ni-NTA column. After washing the column with 20 mM imidazole, HcEGFR was eluted with 250 mM imidazole (in 50 mM Na2HPO4, pH 8.0, 300 mM NaCl). Fractions collected were dialyzed against 10 mM HEPES, pH 7.0, 50 mM NaCl, 10% glycerol, 1µg/mL antipain and leupeptin and 0.1 mM Pefabloc SC. The protein was frozen in dry ice/methanol and stored -70° C.
Test compounds were made into 10 mg/mL stock solutions in 100% dimethylsulfoxide (DMSO). Prior to experiment, stock solutions were diluted to 500 µM with 100% DMSO and then serially diluted to the desired concentration with HEPES buffer (30 mM HEPES pH 7.4).
For the enzyme reaction, 10 µL of each inhibitor (at various concentrations) were added to each well of a 96-well plate. To this was added 3 µL of enzyme (1:10 dilution in 10mM HEPES, pH 7.4 for final conc. of 1:120). This was allowed to sit for 10 minutes on ice and was followed by the addition of 5 µl peptide (80 uM final conc.), 10µl of 4X Buffer (Table A), 0.25 µL ^33P-ATP and 12 µL H2O. The reaction was allowed to run for 90 minutes at room temperature and was followed by spotting the entire volume on to precut P81 filter papers. The filter discs were washed 2X with 0.5% phosphoric acid and radioactivity was measured using a liquid scintillation counter. Table A
The inhibition data for representative compounds of the invention are shown below in TABLE 1. The IC50 is the concentration of test compound needed to reduce the total amount of phosphorylated substrate by 50%. The % inhibition of the test compound was determined for at least three different concentrations and the IC50 value was evaluated from the dose response curve. […] CPM(control) is in units of counts per minute and was a number expressing the amount of radiolabeled ATP (γ-^33P) incorporated into the RR-SRC peptide substrate by the enzyme after 90 minutes at room temperature in the absence of test compound as measured by liquid scintillation counting. The CPM values were corrected for the background counts produced by ATP in the absence of the enzymatic reaction. Where it was possible to determine an IC50 value, this is reported in TABLE 1 otherwise the % inhibition at 0.5 µM concentration of test compound is shown in TABLE 1.

c-Met = molecular target: T2, c-Met (Homo sapiens, UniProt P08581); assay: DELFIA assay for c-Met receptor kinase inhibitors; format: biochemical
T2 construct: The cytoplasmic domain of c-Met was generated by reverse transcriptase-polymerase chain reaction; His tag (from pFastBac-HTc vector; purified on Ni-NTA/Talon); made in house; host or cells: Sf9 insect cells (baculovirus)
T2 sequence (P08581 956-1390 limits assumed): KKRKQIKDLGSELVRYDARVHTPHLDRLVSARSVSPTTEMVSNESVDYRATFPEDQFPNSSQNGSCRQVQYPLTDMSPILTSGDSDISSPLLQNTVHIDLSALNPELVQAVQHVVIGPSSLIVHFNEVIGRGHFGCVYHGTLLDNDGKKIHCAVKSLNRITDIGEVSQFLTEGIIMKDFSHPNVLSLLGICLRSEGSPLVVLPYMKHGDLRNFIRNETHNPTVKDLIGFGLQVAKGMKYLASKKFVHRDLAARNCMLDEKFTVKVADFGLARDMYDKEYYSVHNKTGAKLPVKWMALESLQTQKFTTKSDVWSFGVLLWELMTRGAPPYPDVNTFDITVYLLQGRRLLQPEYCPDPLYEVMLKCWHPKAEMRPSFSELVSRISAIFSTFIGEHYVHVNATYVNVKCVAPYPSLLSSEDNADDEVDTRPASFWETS
Experimental: The c-Met kinase assay was performed as a DELFIA (dissociation enchanced lanthanide fluorometric immunoassay), an ELISA-like protocol based upon time-resolved fluorometry as described previously [Braunwalder, A. F., Yarwood, D.R., Sills, M.A., and Lipson, K.E., Anal. Biochem. 238, 159-164 (1996)]. The protocol was adopted for the screening of inhibitors of the kinase activity of recombinant c-Met. [Loganzo, F., and. Hardy, C., American Biotechnology Laboratory 16(13), 26-28 (1998)]. The cytoplasmic domain of c-Met was generated by reverse transcriptase-polymerase chain reaction using RNA isolated from human mammary epithelial cells as template, cloned into the pFastBac-HTc vector (Life Technologies) and protein expressed in Sf9 insect cells by baculovirus infection. Protein was purified by imidazole elution from Ni-NTA resin (Invitrogen, Carlsbad, CA) or Talon resin (Clontech, Palo Alto, CA). Various conditions were evaluated for the kinase screening protocol and screening was accomplished with the following method. Polystyrene Maxisorp plates (Nunc) were pre-coated for 1 hour to overnight at room temperature with 5 µg/ml poly(Glu4-Tyr) diluted in Tris-buffered saline (TBS). Plates were washed 3X with TBS. c-Met protein preparation was diluted 1:80 into 0.1% BSA/ 4 mM HEPES. A master mix was prepared consisting of: 1 volume of diluted c-Met, 1 volume of 5X buffer (20 mM HEPES, pH 7.4; 2 mM MnCl2; 100 µM Na3VO4; 1 mM DTT), 0.9 volume of water. Master mix (29 µl) was added to the wells of peptide-coated microtiter plates. For assays where c-Met autophosphorylation was evaluated, plates were uncoated and c-Met was diluted into 4 mM HEPES at 1:40 without BSA. Compounds (1 µl) at various dilutions (1 mM to 0.1 µM) prepared in DMSO were added and mixed well with an automatic piptettor. After incubation 20 minutes at room temperature, the reaction was initiated with 20 µl of 62.5 µM ATP/ 50 mM MgCl2 (final 25 µM ATP/ 20 mM MgCl2 in assay). Reactions were incubated 45 minutes at room temperature. Plates were then washed 3X with 100 µl each of DELFIA wash buffer (Wallac). Antibody binding was performed by adding 75 µl of Europium-conjugated anti-phosphotyrosine diluted 1:2000 in Assay Buffer (Wallac) for 1 hour at room temperature. Plates were washed 3X with DELFIA wash buffer. Detection was done by addition of 100 µl of Enhancement Solution (Wallac). After 30 minutes, plates were read in a Wallac VICTOR-2 time-resolved fluorometer. Inhibition data was reported as europium counts for compound treated wells normalized to control counts. IC50 values were obtained by using log doses of compound and calculated using Data Analysis Toolbox software, version 1.0.2 (MDL Information Systems, Inc.).

[2] = system: Human Epidermoid Tumors (A431); assay: In vivo inhibition of the growth of human epidermoid tumors (A431); design: species or system BALB/c nu/nu female mice; details: for %T/C / RTG Day 7 / RTG Day 14 / RTG Day 21: days 1 through 10; for S/T: # of Survivors/# of Treated on Day +21
Experimental: BALB/c nu/nu female mice (Charles River, Wilmington, MA) were used in the in vivo standard pharmacological test procedures. Human epidermoid carcinoma cells A-431 (American Type Culture Collection, Rockville, Maryland # CRL-155) were grown in vitro as described above. A unit of 5 X 10^6 cells were injected subcutaneously into mice. When tumors attained a mass of between 100 and 150 mg, the mice were randomized into treatment groups (day zero). Mice were treated orally (PO) once a day on days 1 through 10 post staging with doses of either 40, 20, 10, 3 or 1 mg/kg/dose of the compound to be evaluated in 0.2% Klucel. Control animals received no drug. Tumor mass was determined every 7 days [(length X width^2)/2] for 28 days post staging. Relative tumor growth (Mean tumor mass on day 7, 14, and 21 divided by the mean tumor mass on day zero) is determined for each treatment group. The %T/C (Tumor/Control) is determined by dividing the relative tumor growth of the treated group by the relative tumor growth of the placebo group and multiplying by 100. A compound is considered to be active if the %T/C is found to be […].

- IC50 (MDA435): 2.72 µg/mL (≈ 5.81 µM)
- IC50 (SKBR3): 1.07 µg/mL (≈ 2.28 µM)
- IC50 (Her2Neu): > 5 µg/mL
- IC50 (A431): 1.01 µg/mL (≈ 2.15 µM)
- IC50 (SW620): 1.89 µg/mL (≈ 4.04 µM)
- inhibition at 0.5 µM [1]: 57.8%
- inhibition at 10 µg/mL (c-Met): 50%
Structure (SMILES): CN(C)CCCC(=O)N1CCOc2cc3ncc(C#N)c(Nc4ccc(F)c(Cl)c4)c3cc21 [Example 10]
- IC50 (3T3): 1.99 µg/mL (≈ 4.25 µM)

- IC50 (MDA435): 0.24 µg/mL (≈ 0.515 µM)
- IC50 (Her2Neu): 0.15 µg/mL (≈ 0.323 µM)
- IC50 (A431): 0.108 µg/mL (≈ 0.232 µM)
- IC50 (SW620): 0.165 µg/mL (≈ 0.354 µM)
- inhibition at 0.5 µM [1]: 56.5%
- IC50 ([1]; recombinant enzyme): 170 nM
Structure (SMILES): CN(C)C/C=C/C(=O)N1CCOc2cc3ncc(C#N)c(Nc4ccc(F)c(Cl)c4)c3cc21 [Example 9, 9-(3-Chloro-4-fluoroanilino)-1-[(2E)-4-(dimethylamino)-2-butenoyl]-2,3-dihydro-1H-[1,4]oxazino[3,2-g]quinoline-8-carbonitrile]
- IC50 (3T3): 0.169 µg/mL (≈ 0.364 µM)
- %T/C ([2]; 1 mg/kg/dose PO, Day 7): 103%
- RTG Day 7 ([2]; 1 mg/kg/dose PO, Day 7): 4.66
- %T/C ([2]; 1 mg/kg/dose PO, Day 14): 73%
- RTG Day 14 ([2]; 1 mg/kg/dose PO, Day 14): 8.11
- %T/C ([2]; 1 mg/kg/dose PO, Day 21): 76%
- RTG Day 21 ([2]; 1 mg/kg/dose PO, Day 21): 13.23
- S/T ([2]; 1 mg/kg/dose PO): 5/5
- %T/C ([2]; 3 mg/kg/dose PO, Day 7): 104%
- RTG Day 7 ([2]; 3 mg/kg/dose PO, Day 7): 4.76
- %T/C ([2]; 3 mg/kg/dose PO, Day 14): 107%
- RTG Day 14 ([2]; 3 mg/kg/dose PO, Day 14): 11.79
- %T/C ([2]; 3 mg/kg/dose PO, Day 21): 137%
- RTG Day 21 ([2]; 3 mg/kg/dose PO, Day 21): 23.77
- S/T ([2]; 3 mg/kg/dose PO): 5/5
- %T/C ([2]; 10 mg/kg/dose PO, Day 7): 105%
- RTG Day 7 ([2]; 10 mg/kg/dose PO, Day 7): 4.81
- %T/C ([2]; 10 mg/kg/dose PO, Day 14): 87%
- RTG Day 14 ([2]; 10 mg/kg/dose PO, Day 14): 9.66
- %T/C ([2]; 10 mg/kg/dose PO, Day 21): 64%
- RTG Day 21 ([2]; 10 mg/kg/dose PO, Day 21): 11.49
- S/T ([2]; 10 mg/kg/dose PO): 5/5
- %T/C ([2]; 20 mg/kg/dose PO, Day 7): 118%
- RTG Day 7 ([2]; 20 mg/kg/dose PO, Day 7): 5.40
- %T/C ([2]; 20 mg/kg/dose PO, Day 14): 96%
- RTG Day 14 ([2]; 20 mg/kg/dose PO, Day 14): 10.56
- %T/C ([2]; 20 mg/kg/dose PO, Day 21): 84%
- RTG Day 21 ([2]; 20 mg/kg/dose PO, Day 21): 14.56
- S/T ([2]; 20 mg/kg/dose PO): 5/5
- %T/C ([2]; 40 mg/kg/dose PO, Day 7): 75%
- RTG Day 7 ([2]; 40 mg/kg/dose PO, Day 7): 3.40
- %T/C ([2]; 40 mg/kg/dose PO, Day 14): 53%
- RTG Day 14 ([2]; 40 mg/kg/dose PO, Day 14): 5.93
- %T/C ([2]; 40 mg/kg/dose PO, Day 21): 41%
- RTG Day 21 ([2]; 40 mg/kg/dose PO, Day 21): 7.15
- S/T ([2]; 40 mg/kg/dose PO): 5/5
- inhibition of tumor growth in vivo ([2]; summary statement in words): effective inhibitor of tumor growth in vivo
